From patent US7982043B2, “Protein tyrosine kinase enzyme inhibitors” (Wyeth LLC, priority 2003, dated 2011)
In brackets after ≈: the same amount, converted by molar mass. Where two headings read alike, the source gives them in different places.

Legend:
3T3 cells = test: Cell proliferation assay (SRB), 3T3; type: cell-based, mouse; conditions: for IC50: Mus musculus
[1] = target: T1, recombinant cytoplasmic domain of HER-2 (Homo sapiens, UniProt P04626); test: Cell-free autophosphorylation kinase assay (ELISA), HER-2; type: biochemical
T1 construct: In a cell-free autophosphorylation assay using the recombinant cytoplasmic domain of HER-2
T1 sequence (P04626 676-1255 limits assumed): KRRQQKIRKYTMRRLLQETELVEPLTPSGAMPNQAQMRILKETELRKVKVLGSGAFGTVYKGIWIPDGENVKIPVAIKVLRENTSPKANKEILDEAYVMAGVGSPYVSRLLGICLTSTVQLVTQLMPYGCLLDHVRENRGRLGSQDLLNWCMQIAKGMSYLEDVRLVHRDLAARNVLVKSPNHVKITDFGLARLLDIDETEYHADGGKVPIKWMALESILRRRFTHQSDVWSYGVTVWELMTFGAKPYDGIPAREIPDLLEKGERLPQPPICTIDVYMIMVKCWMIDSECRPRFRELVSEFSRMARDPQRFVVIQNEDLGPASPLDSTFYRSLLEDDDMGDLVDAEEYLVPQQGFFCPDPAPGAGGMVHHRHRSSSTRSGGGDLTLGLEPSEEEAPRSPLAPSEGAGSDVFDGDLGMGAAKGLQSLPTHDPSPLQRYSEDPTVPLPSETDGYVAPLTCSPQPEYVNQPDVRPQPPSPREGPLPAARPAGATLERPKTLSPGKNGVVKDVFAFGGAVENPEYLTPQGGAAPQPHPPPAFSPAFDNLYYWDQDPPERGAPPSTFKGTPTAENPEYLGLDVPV

SK-Br-3 cells = test: Cell proliferation assay (SRB), SK-Br-3; type: cell-based; conditions: for IC50: Homo sapiens, SK-BR-3, 48 h, read-out: CELL IC50 SKBr3
SW620 cells = test: Cell proliferation assay (SRB), SW620; type: cell-based; conditions: for IC50: Homo sapiens, SW-620, 48 h, read-out: CELL IC50 SW620
BT474 cells = test: Cell proliferation assay (SRB), BT474; type: cell-based, human; conditions: for IC50: Homo sapiens, BT-474, 144 h, read-out: CELL IC50 BT474
Her-2 = target: T2, Her-2 (Homo sapiens, UniProt P04626); test: Her-2 receptor phosphorylation in BT474 cells (immunoblot); type: cell-based
T2 construct: For Her-2 and EGFR phosphorylation assays, cells (BT474 and A431, respectively) were incubated with various concentrations of compound; endogenous in cells; host or cells: BT474
T2 sequence (P04626 23-1255): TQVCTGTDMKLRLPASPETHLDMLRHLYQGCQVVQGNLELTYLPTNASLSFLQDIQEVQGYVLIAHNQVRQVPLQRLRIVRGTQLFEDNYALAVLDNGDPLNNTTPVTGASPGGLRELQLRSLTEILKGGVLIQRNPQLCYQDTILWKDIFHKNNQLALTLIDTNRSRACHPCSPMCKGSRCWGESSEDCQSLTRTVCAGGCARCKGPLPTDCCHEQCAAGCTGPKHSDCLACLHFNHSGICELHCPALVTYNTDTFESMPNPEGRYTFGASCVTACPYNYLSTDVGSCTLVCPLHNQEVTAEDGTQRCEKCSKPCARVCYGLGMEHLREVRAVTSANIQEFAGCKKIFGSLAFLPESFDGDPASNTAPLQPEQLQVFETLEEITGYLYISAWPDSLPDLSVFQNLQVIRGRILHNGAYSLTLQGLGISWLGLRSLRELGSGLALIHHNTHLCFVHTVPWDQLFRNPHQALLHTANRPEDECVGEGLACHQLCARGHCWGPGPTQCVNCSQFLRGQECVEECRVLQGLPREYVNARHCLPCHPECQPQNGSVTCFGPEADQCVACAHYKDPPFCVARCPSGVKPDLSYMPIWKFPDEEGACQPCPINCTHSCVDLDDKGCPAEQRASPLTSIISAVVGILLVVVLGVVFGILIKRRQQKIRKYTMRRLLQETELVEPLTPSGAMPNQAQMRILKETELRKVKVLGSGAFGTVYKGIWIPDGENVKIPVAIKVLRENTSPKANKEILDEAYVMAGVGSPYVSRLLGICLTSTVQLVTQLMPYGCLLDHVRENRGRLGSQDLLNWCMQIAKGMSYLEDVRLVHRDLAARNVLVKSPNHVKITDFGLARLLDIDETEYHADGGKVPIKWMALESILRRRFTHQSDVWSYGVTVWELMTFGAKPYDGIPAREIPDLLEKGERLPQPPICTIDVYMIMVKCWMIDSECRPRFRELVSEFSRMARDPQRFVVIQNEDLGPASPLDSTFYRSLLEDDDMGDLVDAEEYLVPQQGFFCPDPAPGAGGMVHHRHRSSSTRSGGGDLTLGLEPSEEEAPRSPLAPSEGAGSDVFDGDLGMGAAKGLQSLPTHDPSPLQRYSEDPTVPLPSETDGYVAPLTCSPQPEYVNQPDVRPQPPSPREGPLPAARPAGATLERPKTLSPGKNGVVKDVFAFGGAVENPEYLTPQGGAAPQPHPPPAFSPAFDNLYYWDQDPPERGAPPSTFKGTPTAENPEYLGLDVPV

MDA-MB-435 cells = test: Cell proliferation assay (SRB), MDA-MB-435; type: cell-based; conditions: for IC50: Homo sapiens, MDA-MB-435, 48 h, read-out: CELL IC50 MDA-MB-435
A431 cells = test: Cell proliferation assay (SRB), A431; type: cell-based; conditions: for IC50: Homo sapiens, A-431, 48 h, read-out: CELL IC50 A431
[2] = target: mouse fibroblast cell line transfected with the HER-2 oncogene (3T3/neu) (UniProt P04626, cells depend on it, species not given); test: Cell proliferation assay (SRB), 3T3/neu; type: cell-based
EGFR [3] = target: T3, EGFR (Homo sapiens, UniProt P00533); test: Cell-free autophosphorylation kinase assay (ELISA), EGFR; type: biochemical; set-up: Purified recombinant C-terminal fragment of each enzyme is incubated with ATP; conditions: read-out: Enzyme IC50 EGFR (converted)
Target sequence in this assay (P00533 669-1210 limits assumed): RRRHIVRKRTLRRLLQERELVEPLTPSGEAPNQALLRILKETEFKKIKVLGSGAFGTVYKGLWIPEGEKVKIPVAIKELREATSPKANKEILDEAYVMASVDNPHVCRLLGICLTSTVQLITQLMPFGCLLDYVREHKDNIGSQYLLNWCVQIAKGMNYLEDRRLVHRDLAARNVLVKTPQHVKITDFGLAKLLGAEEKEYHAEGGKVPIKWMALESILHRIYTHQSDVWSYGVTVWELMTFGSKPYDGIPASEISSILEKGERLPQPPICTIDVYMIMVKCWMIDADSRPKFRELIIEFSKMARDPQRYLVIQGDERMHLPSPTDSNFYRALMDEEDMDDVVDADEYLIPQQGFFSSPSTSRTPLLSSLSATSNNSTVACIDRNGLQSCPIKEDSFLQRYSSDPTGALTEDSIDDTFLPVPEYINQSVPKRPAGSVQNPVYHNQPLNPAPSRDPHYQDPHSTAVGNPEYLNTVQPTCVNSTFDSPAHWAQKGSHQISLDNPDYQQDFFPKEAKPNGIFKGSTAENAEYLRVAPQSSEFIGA

EGFR [4] = target: T3, EGFR; test: EGFR receptor phosphorylation in A431 cells (immunoblot); type: cell-based; set-up: They also repressed EGF-dependent phosphorylation of EGFR in A431 cells; endogenous in cells; host or cells: A431
Target sequence in this assay (P00533 25-1210): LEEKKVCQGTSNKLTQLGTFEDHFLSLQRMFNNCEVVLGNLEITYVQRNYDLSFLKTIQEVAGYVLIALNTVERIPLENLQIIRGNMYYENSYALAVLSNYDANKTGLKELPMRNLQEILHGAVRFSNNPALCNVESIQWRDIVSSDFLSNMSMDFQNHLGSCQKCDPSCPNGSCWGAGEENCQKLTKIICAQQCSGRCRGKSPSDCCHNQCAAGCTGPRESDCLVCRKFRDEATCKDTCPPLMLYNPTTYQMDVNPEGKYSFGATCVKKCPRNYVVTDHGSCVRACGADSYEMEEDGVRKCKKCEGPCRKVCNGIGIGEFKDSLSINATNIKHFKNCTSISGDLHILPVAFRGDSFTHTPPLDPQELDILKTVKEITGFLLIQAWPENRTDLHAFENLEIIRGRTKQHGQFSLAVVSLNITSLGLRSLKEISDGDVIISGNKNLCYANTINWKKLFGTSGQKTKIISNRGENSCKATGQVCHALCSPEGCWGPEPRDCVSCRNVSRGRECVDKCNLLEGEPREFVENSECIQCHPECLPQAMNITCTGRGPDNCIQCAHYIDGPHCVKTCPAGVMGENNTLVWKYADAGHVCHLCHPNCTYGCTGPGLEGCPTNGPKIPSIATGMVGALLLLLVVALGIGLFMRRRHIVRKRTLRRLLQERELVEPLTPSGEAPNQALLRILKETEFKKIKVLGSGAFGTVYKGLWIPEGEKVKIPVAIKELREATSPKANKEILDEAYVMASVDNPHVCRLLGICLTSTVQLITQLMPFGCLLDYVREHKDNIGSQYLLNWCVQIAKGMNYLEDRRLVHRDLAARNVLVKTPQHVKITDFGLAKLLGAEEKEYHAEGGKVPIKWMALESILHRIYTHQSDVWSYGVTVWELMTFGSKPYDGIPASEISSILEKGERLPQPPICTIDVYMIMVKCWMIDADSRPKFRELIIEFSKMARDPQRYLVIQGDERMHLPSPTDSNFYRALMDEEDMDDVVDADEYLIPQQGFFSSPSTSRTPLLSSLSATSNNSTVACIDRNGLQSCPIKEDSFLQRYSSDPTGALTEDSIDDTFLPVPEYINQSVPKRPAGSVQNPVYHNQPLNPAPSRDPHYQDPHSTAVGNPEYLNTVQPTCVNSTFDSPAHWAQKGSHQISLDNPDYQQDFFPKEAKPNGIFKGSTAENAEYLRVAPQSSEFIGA

[5] = test system: HER-2 overexpressing human xenograft models; test: HER-2 overexpressing human xenograft models (overall); type: in vivo, mouse; conditions: mouse, in vivo
BT474 xenografts = test: BT474 tumor xenograft in nude mice; type: in vivo, mouse; conditions: day 21
[6] = test system: xenografts of 3T3/neu cells; test: 3T3/neu tumor xenograft in nude mice; type: in vivo, mouse; conditions: day 21
[7] = EGFR −, Her-2 +++, 2 days, SRB, read-out: CELL IC50 3T3/NEU (converted)
[8] = Her-2 phosphorylation, 3 hours at 37° C., immunoblot, read-out: IC50 receptor phosphorylation BT474 (converted)
[9] = NIH3T3, 48 h, EGFR −, Her-2 −, 2 days, SRB, read-out: CELL IC50 3T3

| CELL IC50 SKBr3 (SK-Br-3 cells; EGFR −, Her-2 +++, 2 days, SRB) [µg/mL] | CELL IC50 SW620 (SW620 cells; EGFR −, Her-2 −, 2 days, SRB) [µg/mL] | CELL IC50 MDA-MB-435 (MDA-MB-435 cells; EGFR −, Her-2 −, 2 days, SRB) [µg/mL] | GI50 [2, 7] [nM] | IC50 (SK-Br-3 cells; EGFR −, Her-2 +++, 2 days, SRB) [µg/mL] | IC50 (SW620 cells; EGFR −, Her-2 −, 2 days, SRB) [µg/mL] | IC50 (Her-2; [8]) [nM] | IC50 (MDA-MB-435 cells; EGFR −, Her-2 −, 2 days, SRB) [µg/mL] | IC50 (A431 cells; EGFR +++, Her-2 +, 2 days, SRB) [µg/mL] | Compound | also measured |
| --- | --- | --- | --- | --- | --- | --- | --- | --- | --- | --- |
| 0.0071 | 0.32 | 0.34 | – | – | – | – | – | – | CCOc1cc2ncc(C#N)c(Nc3ccc(F)c(Cl)c3)c2cc1NC(=O)C=CCN(C)C [Example 20, 4-Dimethyl-but-2-enoic acid [4-(3-chloro-4-fluoro-phenylamino)-3-cyano-7-ethoxy-quinolin-6-yl]-amide] | CELL IC50 3T3 (3T3 cells; EGFR −, Her-2 −, 2 days, SRB): 0.26 µg/mL; inhibition of the HER-2 enzyme (in words) [1]: is not; Enzyme IC50 HER-2 ([1]; autophosphorylation, ELISA): 0.58 µg/mL; CELL IC50 BT474 (BT474 cells; EGFR +, Her-2 +++, 6 days, SRB): 0.020 µg/mL; IC50 receptor phosphorylation BT474 (Her-2; Her-2 phosphorylation, 3 hours at 37° C., immunoblot): 0.080 µg/mL (≈ 0.171 µM) |
| – | – | – | 44.6 | 0.005 (≈ 0.00797 µM) | 0.57 (≈ 0.909 µM) | 79700 to 797000 | 0.23 (≈ 0.367 µM) | 0.162 (≈ 0.258 µM) | COc1cc2ncc(C#N)c(Nc3ccc(Sc4nc(-c5ccccc5)cs4)c(Cl)c3)c2cc1NC(=O)/C=C/CN(C)C [Example 58, (E)-N-(4-{3-chloro-4-[(4-phenyl-1,3-thiazol-2-yl)sulfanyl]anilino}-3-cyano-7-methoxy-6-quinolinyl)-4-(dimethylamino)-2-butenamide] | – |
| – | – | – | 5.22 | 0.0015 (≈ 0.0027 µM) | 0.24 (≈ 0.432 µM) | 13.5 | 0.47 (≈ 0.845 µM) | 0.062 (≈ 0.111 µM) | CCOc1cc2ncc(C#N)c(Nc3ccc(OCc4ccccc4)c(Cl)c3)c2cc1NC(=O)/C=C/CN(C)C [Example 1, (E)-N-{4-[4-(benzyloxy)-3-chloroanilino]-3-cyano-7-ethoxy-6-quinolinyl}-4-(dimethylamino)-2-butenamide] | IC50 (3T3 cells; [9]): 0.38 µg/mL; IC50 (3T3 cells; NIH3T3, span over the three compounds, read-out: IC50 isogenic untransfected cells (3T3)): 683 to 906 nM; inhibition of the HER-2 enzyme (in words) [1]: potent inhibitors; IC50 ([1]; HER-2 enzyme activity reduced by 50% (IC50), span over the three inhibitors): 33 to 65 nM; IC50 ([1]; autophosphorylation, ELISA, read-out: Enzyme IC50 HER-2 (converted)): 64.7 nM; IC50 (EGFR [3]): 50.4 nM; IC50 (BT474 cells; EGFR +, Her-2 +++, 6 days, SRB): 0.0014 µg/mL (≈ 0.00252 µM); IC50 (Her-2; ligand-independent receptor phosphorylation decreased by 50% (IC50) in BT474 cells, span over the three compounds): 5 to 23 nM; IC50 receptor phosphorylation A431 (EGFR [4]; EGFR phosphorylation, 3 hours at 37° C., immunoblot): 0.0031 µg/mL (≈ 0.00557 µM); IC50 (EGFR [4]; span over the three compounds, read-out: EGF-dependent phosphorylation of EGFR in A431 cells IC50): 3 to 7 nM |
| – | – | – | 6.94 | 0.004 (≈ 0.00712 µM) | 0.25 (≈ 0.445 µM) | 2.67 | 0.77 (≈ 1.37 µM) | – | CCOc1cc2ncc(C#N)c(Nc3ccc(OCc4cccs4)c(Cl)c3)c2cc1NC(=O)/C=C/CN(C)C [Example 76, (2E)-N-{4-[3-chloro-4-(2-thienylmethoxy)anilino]-3-cyano-7-ethoxy-6-quinolinyl}-4-(dimethylamino)-2-butenamide] | IC50 (3T3 cells; [9]): 0.41 µg/mL; IC50 (BT474 cells; EGFR +, Her-2 +++, 6 days, SRB): 0.003 µg/mL (≈ 0.00534 µM) |
| – | – | – | > 9880 | 0.551 (≈ 1.09 µM) | 1.38 (≈ 2.73 µM) | – | 0.91 (≈ 1.8 µM) | > 5 | CCOc1cc2ncc(C#N)c(Nc3ccc(Nc4nnc(C(F)(F)F)s4)c(Cl)c3)c2cc1N [Example 59, 6-amino-4-(3-chloro-4-{[5-(trifluoromethyl)-1,3,4-thiadiazol-2-yl]amino}anilino)-7-ethoxy-3-quinolinecarbonitrile] | – |
| – | – | – | > 11600 | > 5 | > 5 | – | 1.61 (≈ 3.73 µM) | > 5 | CCOc1cc2ncc(C#N)c(Nc3ccc(Oc4ccncc4)c(Cl)c3)c2cc1N [Example 55, 6-amino-4-[3-chloro-4-(4-pyridinyloxy)anilino]-7-ethoxy-3-quinolinecarbonitrile] | – |
| 0.336 | 0.146 | 0.00328 | – | – | – | – | – | – | CCOc1cc2ncc(C#N)c(Nc3ccc4c(c3)S(=O)(=O)C=C4)c2cc1OCC [Example 30, 4-(1,1-Dioxo-1H-1-benzo[b]thiophen-6-ylamino)-6,7-diethoxy-q uinoline-3-carbonitrile] | CELL IC50 A431 (A431 cells; EGFR +++, Her-2 +, 2 days, SRB): 0.257 µg/mL; CELL IC50 3T3/NEU ([2]; EGFR −, Her-2 +++, 2 days, SRB): 0.251 µg/mL |
| – | – | – | – | – | – | – | – | – | CCOc1cc2ncc(C#N)c(Nc3ccc(OCc4ccccn4)c(Cl)c3)c2cc1NC(=O)/C=C/CN(C)C [Example 2, (E)-N-{4-[3-chloro-4-(2-pyridinylmethoxy)anilino]-3-cyano-7-ethoxy-6-quinolinyl}-4-(dimethylamino)-2-butenamide] | IC50 (A431 cells): 0.045 µg/mL (≈ 0.0808 µM); IC50 (3T3 cells; NIH3T3, 48 h, read-out: CELL IC50 3T3): 0.39 µg/mL; IC50 (3T3 cells; NIH3T3, read-out: IC50 isogenic untransfected cells (3T3)): 683 to 906 nM; inhibition of the HER-2 enzyme (in words) [1]: potent inhibitors; MED in the HER-2 overexpressing human xenograft models [5]: ~10 mg/kg/day; GI50 ([2]; read-out: CELL IC50 3T3/NEU, mouse fibroblast cell line transfected with the her-2 oncogene (3t3/neu)): 3.23 nM; maximum tumor growth inhibition (BT474 xenografts; 10 mg/kg/day PO): 76%; maximum tumor growth inhibition (BT474 xenografts; 40 mg/kg/day PO): 95%; IC50 (SK-Br-3 cells): 0.001 µg/mL (≈ 0.0018 µM); tumor growth inhibition ([6]; 20 mg/kg/day PO): 53%; tumor growth inhibition ([6]; 40 mg/kg/day PO): 95%; tumor growth inhibition ([6]; 80 mg/kg/day PO): 98%; IC50 (SW620 cells): 0.44 µg/mL (≈ 0.79 µM); IC50 (BT474 cells): 0.0013 µg/mL (≈ 0.00233 µM); IC50 (MDA-MB-435 cells): 0.44 µg/mL (≈ 0.79 µM) |
| 1.73 | 5.99 | 1.27 | – | – | – | – | – | – | COc1cc2ncc(C#N)c(Nc3ccc(-n4ccnc4)c(Cl)c3)c2cc1N [Example 42] | CELL IC50 A431 (A431 cells; EGFR +++, Her-2 +, 2 days, SRB): 1.63 µg/mL; CELL IC50 3T3/NEU ([2]; EGFR −, Her-2 +++, 2 days, SRB): 0.53 µg/mL |
| – | – | – | 4470 | 0.943 (≈ 1.67 µM) | 3.1 (≈ 5.5 µM) | – | 2.5 (≈ 4.44 µM) | > 5 | CCOc1cc2ncc(C#N)c(Nc3ccc(Sc4nc(-c5ccccc5)cs4)c(C(F)(F)F)c3)c2cc1N [Example 68, 6-Amino-7-ethoxy-4-[4-(4-phenyl-thiazol-2-ylsulfanyl)-3-trifluoromethyl-phenylamino]-quinoline-3-carbonitrile] | – |
| 3.94 | >5 | >5 | – | – | – | – | – | – | COc1cc2ncc(C#N)c(Nc3ccc(N(Cc4cccnc4)C(C)=O)c(Cl)c3)c2cc1NC(C)=O [Example 50] | CELL IC50 A431 (A431 cells; EGFR +++, Her-2 +, 2 days, SRB): 3.68 µg/mL; CELL IC50 3T3/NEU ([2]; EGFR −, Her-2 +++, 2 days, SRB): >5 µg/mL |

| Compound | CELL IC50 SKBr3 (SK-Br-3 cells; EGFR −, Her-2 +++, 2 days, SRB) [µg/mL] | CELL IC50 SW620 (SW620 cells; EGFR −, Her-2 −, 2 days, SRB) [µg/mL] | CELL IC50 MDA-MB-435 (MDA-MB-435 cells; EGFR −, Her-2 −, 2 days, SRB) [µg/mL] | GI50 [2, 7] [nM] | IC50 (SK-Br-3 cells; EGFR −, Her-2 +++, 2 days, SRB) [µg/mL] | IC50 (SW620 cells; EGFR −, Her-2 −, 2 days, SRB) [µg/mL] | IC50 (Her-2; [8]) [nM] | IC50 (MDA-MB-435 cells; EGFR −, Her-2 −, 2 days, SRB) [µg/mL] | IC50 (A431 cells; EGFR +++, Her-2 +, 2 days, SRB) [µg/mL] | also measured |
| --- | --- | --- | --- | --- | --- | --- | --- | --- | --- | --- |
| COc1cc2ncc(C#N)c(Nc3ccc(Sc4nccs4)c(Cl)c3)c2cc1NC(=O)/C=C/CN(C)C [Example 40, (2E)-N-(4-{[3-chloro-4-(1,3-thiazol-2-ylsulfanyl)phenyl]amino}-3-cyano-7-methoxy-6-quinolinyl)-4-(dimethylamino)-2-butenamide] | – | – | – | 3.63 | 0.0007 (≈ 0.00127 µM) | 1.13 (≈ 2.05 µM) | 18100 to 90700 | 0.33 (≈ 0.599 µM) | – | IC50 (A431 cells): 0.017 µg/mL (≈ 0.0308 µM) |
| COc1cc2ncc(C#N)c(Nc3ccc(Sc4nccn4C)c(Cl)c3)c2cc1NC(=O)/C=C/CN(C)C [Example 37, (2E)-N-[4-({3-chloro-4-[(1-methyl-1H-imidazol-2-yl)sulfanyl]phenyl}amino)-3-cyano-7-methoxy-6-quinolinyl]-4-(dimethylamino)-2-butenamide] | – | – | – | 36.5 | 0.0004 (≈ 0.00073 µM) | 0.43 (≈ 0.785 µM) | < 1820 | 0.43 (≈ 0.785 µM) | – | IC50 (A431 cells): 0.02 µg/mL (≈ 0.0365 µM) |
